Data on six compounds can be found in PubChem BioAssay AID330 (DTP/NCI, 2004).

In the assay the test system is P388 leukemia ip, CD2F1 mice, survival T/C. In words: NCI In Vivo Anticancer Drug Screen. Data for tumor model P388 Leukemia (intraperitoneal) in CD2F1 (CDF1) mice. The following applies: endpoint: median survival time, higher = longer survival. In short, it runs like this: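 Mice carrying the transplanted tumor received test compound or vehicle. Survival was recorded in each group, and the value is the treated-group measurement divided by that of the vehicle-treated control group.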

The mark [1] stands for this setting: dose: 50.0 mg/kg/injection, schedule: Q01DX009 (ip), vehicle: Klucel (hydroxypropylcellulose) (HPC).
[2] abbreviates: dose: 100.0 mg/kg/injection, schedule: Q01DX009 (ip), vehicle: Klucel (hydroxypropylcellulose) (HPC).
Setting [3] is: dose: 200.0 mg/kg/injection, schedule: Q01DX009 (ip), vehicle: Klucel (hydroxypropylcellulose) (HPC).
The mark [4] stands for this setting: dose: 50.0 mg/kg/injection, schedule: Q01DX005 (ip), vehicle: Klucel (hydroxypropylcellulose) (HPC).
Where [5] appears, read: dose: 100.0 mg/kg/injection, schedule: Q01DX005 (ip), vehicle: Klucel (hydroxypropylcellulose) (HPC).

Values joined by “and” are separate entries in the source; they are usually repeats but may differ in a detail not shown here. Equal entries are not always repeated. Inconclusive results and toxic doses are left out.

In the case of `O=[N+]([O-])c1ccc(C(S(=O)(=O)Cc2ccccc2)S(=O)(=O)Cc2ccccc2)cc1`, the T/C is, setting by setting: under setting [1], 93 % of control; under setting [2], 89 % of control; under setting [3], 90 % of control.

As to `Nc1nc(C2CCCC2)c(Br)c(=O)[nH]1`, the T/C under setting [4] is 101 % of control; the T/C under setting [5] was 103 % of control; the T/C (dose: 200.0 mg/kg/injection, schedule: Q01DX005 (ip), vehicle: Klucel (hydroxypropylcellulose) (HPC)) was 105 % of control.

Regarding `CCCC1OP(=O)(N2CC(C)N(P3(=O)OCC(CC)C(CCC)O3)CC2C)OCC1CC` (stereo not given), the T/C runs as follows: under setting [4], 90 % of control; under setting [5], 101 % of control.

Turning to `O=c1[nH]cc(F)c(=O)[nH]1`, the T/C was 163 % of control (dose: 6.25 mg/kg/injection, schedule: Q01DX009 (ip), vehicle: saline); 167 % of control and 172 % of control (dose: 7.5 mg/kg/injection, schedule: Q01DX009 (ip), vehicle: saline); 107 % of control (dose: 7.5 mg/kg/injection, schedule: Q01DX009 (oral), vehicle: clinical formulation); 201 % of control (dose: 7.5 mg/kg/injection, schedule: Q03HX024 (ip), vehicle: saline); 107 % of control (dose: 7.5 mg/kg/injection, schedule: Q04DX003 (iv), vehicle: saline); 99 % of control (dose: 7.8 mg/kg/injection, schedule: Q04DX003 (ip), vehicle: saline). For the same compound, the T/C reads like this: (dose: 9.0 mg/kg/injection, schedule: Q01DX009 (ip), vehicle: saline) 159 % of control; (dose: 10.0 mg/kg/injection, schedule: Q03HX024 (ip), vehicle: saline) 228 % of control; (dose: 10.0 mg/kg/injection, schedule: Q04DX002 (ip), vehicle: saline) 123 % of control; (dose: 12.0 mg/kg/injection, schedule: Q01DX009 (ip), vehicle: saline) 153 % of control and 166 % of control; (dose: 12.5 mg/kg/injection, schedule: Q01DX005 (ip), vehicle: saline) 167 % of control and 176 % of control; (dose: 12.5 mg/kg/injection, schedule: Q01DX009 (ip), vehicle: saline) 166 % of control. For the same compound, the T/C runs as follows: (dose: 13.0 mg/kg/injection, schedule: Q04DX002 (ip), vehicle: saline) 106 % of control; (dose: 13.2 mg/kg/injection, schedule: Q01DX009 (ip), vehicle: saline) 182 % of control and 213 % of control; (dose: 13.2 mg/kg/injection, schedule: Q01DX009 (ip), vehicle: water) 200 % of control; (dose: 13.3 mg/kg/injection, schedule: Q01DX009 (ip), vehicle: saline sonified) 165 % of control and 181 % of control and 200 % of control; (dose: 15.0 mg/kg/injection, schedule: Q03HX024 (ip), vehicle: saline) 257 % of control; (dose: 15.0 mg/kg/injection, schedule: Q04DX003 (iv), vehicle: saline) 109 % of control. The T/C is 212 % of control (dose: 16.0 mg/kg/injection, schedule: Q01DX009 (ip), vehicle: saline); 166 % of control (dose: 18.0 mg/kg/injection, schedule: Q01DX009 (ip), vehicle: saline); 170 % of control (dose: 19.0 mg/kg/injection, schedule: Q01DX009 (ip), vehicle: saline); 118 % of control (dose: 20.0 mg/kg/injection, schedule: Q01DX009 (ip), vehicle: water); 97 % of control (dose: 21.6 mg/kg/injection, schedule: Q04DX002 (ip), vehicle: saline); 118 % of control (dose: 22.5 mg/kg/injection, schedule: Q03HX024 (ip), vehicle: saline). For the same compound, the T/C runs as follows: (dose: 24.0 mg/kg/injection, schedule: Q01DX009 (ip), vehicle: saline) 119 % of control and 223 % of control; (dose: 25.0 mg/kg/injection, schedule: Q01DX001 (iv), vehicle: saline) 120 % of control; (dose: 27.0 mg/kg/injection, schedule: Q01DX009 (ip), vehicle: water) 97 % of control; (dose: 27.0 mg/kg/injection, schedule: Q04DX003 (ip), vehicle: saline) 158 % of control; (dose: 28.0 mg/kg/injection, schedule: Q01DX009 (ip), vehicle: saline) 101 % of control; (dose: 28.8 mg/kg/injection, schedule: Q01DX005 (ip), vehicle: saline) 158 % of control. Further, the T/C reads like this: (dose: 30.0 mg/kg/injection, schedule: Q03DX003 (ip), vehicle: saline) 162 % of control; (dose: 30.0 mg/kg/injection, schedule: Q04DX003 (iv), vehicle: saline) 124 % of control; (dose: 36.0 mg/kg/injection, schedule: Q01DX009 (ip), vehicle: saline) 100 % of control; (dose: 36.0 mg/kg/injection, schedule: Q04DX002 (ip), vehicle: saline) 112 % of control; (dose: 40.0 mg/kg/injection, schedule: Q03DX003 (ip), vehicle: saline) 165 % of control; (dose: 45.0 mg/kg/injection, schedule: Q01DX009 (ip), vehicle: saline) 99 % of control. For the same compound, the T/C runs as follows: (dose: 48.0 mg/kg/injection, schedule: Q01DX005 (ip), vehicle: saline) 109 % of control; (dose: 50.0 mg/kg/injection, schedule: Q01DX001 (ip), vehicle: saline) 119 % of control; (dose: 50.0 mg/kg/injection, schedule: Q01DX005 (ip), vehicle: saline) 112 % of control; (dose: 50.0 mg/kg/injection, schedule: Q03DX003 (ip), vehicle: saline) 168 % of control; (dose: 50.0 mg/kg/injection, schedule: Q04DX002 (ip), vehicle: saline) 154 % of control; (dose: 54.0 mg/kg/injection, schedule: Q04DX003 (ip), vehicle: saline) 159 % of control. Moreover, the T/C was 94 % of control (dose: 60.0 mg/kg/injection, schedule: Q01DX009 (oral), vehicle: clinical formulation); 99 % of control (dose: 60.0 mg/kg/injection, schedule: Q03DX003 (ip), vehicle: saline); 170 % of control (dose: 60.0 mg/kg/injection, schedule: Q04DX003 (ip), vehicle: water); 122 % of control (dose: 60.0 mg/kg/injection, schedule: Q04DX003 (iv), vehicle: saline); 120 % of control (dose: 66.0 mg/kg/injection, schedule: Q01DX001 (ip), vehicle: saline); 99 % of control (dose: 75.0 mg/kg/injection, schedule: Q01DX005 (ip), vehicle: saline). Moreover, the T/C is, setting by setting: (dose: 75.0 mg/kg/injection, schedule: Q04DX003 (ip), vehicle: saline) 185 % of control and 192 % of control and 199 % of control; (dose: 88.0 mg/kg/injection, schedule: Q01DX001 (ip), vehicle: saline) 115 % of control; (dose: 90.0 mg/kg/injection, schedule: Q04DX003 (ip), vehicle: saline sonified) 108 % of control; (dose: 100.0 mg/kg/injection, schedule: Q01DX001 (iv), vehicle: saline) 164 % of control; (dose: 120.0 mg/kg/injection, schedule: Q01DX005 (ip), vehicle: saline) 91 % of control; (dose: 120.0 mg/kg/injection, schedule: Q01DX009 (ip), vehicle: saline) 83 % of control. Besides, the T/C (dose: 120.0 mg/kg/injection, schedule: Q04DX003 (iv), vehicle: saline) is 87 % of control; the T/C (dose: 125.0 mg/kg/injection, schedule: Q04DX003 (ip), vehicle: saline) was 109 % of control; the T/C (dose: 133.3 mg/kg/injection, schedule: Q01DX001 (ip), vehicle: saline) was 337 % of control; the T/C (dose: 135.0 mg/kg/injection, schedule: Q04DX003 (ip), vehicle: saline) was 98 % of control; the T/C (dose: 166.7 mg/kg/injection, schedule: Q04DX003 (ip), vehicle: saline) was 79 % of control and 81 % of control; the T/C (dose: 400.0 mg/kg/injection, schedule: Q01DX001 (iv), vehicle: saline) is 100 % of control.

Consider `COC1/C=C\OC2(C)Oc3c(C)c(O)c4c(O)c(c5c(c4c3C2=O)NC2(CCN(C)CC2)N=5)=NC(=O)/C(C)=C\C=C\C(C)C(O)C(C)C(O)C(C)C(OC(C)=O)C1C` (stereo not given), for which the T/C runs as follows: (dose: 25.0 mg/kg/injection, schedule: Q01DX009 (ip), vehicle: Klucel (hydroxypropylcellulose) (HPC)) 100 % of control; under setting [1], 100 % of control; under setting [2], 102 % of control; under setting [3], 94 % of control.

With `O=C(CNC(=O)c1ccc(Cl)cc1Cl)N/N=C/c1ccc(Cl)c(Cl)c1`, the T/C is 104 % of control (dose: 3.13 mg/kg/injection, schedule: Q01DX009 (ip), vehicle: saline with Tween-80); 108 % of control (dose: 6.25 mg/kg/injection, schedule: Q01DX009 (ip), vehicle: saline with Tween-80); 104 % of control (dose: 12.5 mg/kg/injection, schedule: Q01DX009 (ip), vehicle: saline with Tween-80).
